# Test results published in patent publication US20220089598A1, “INHIBITORS OF HUMAN IMMUNODEFICIENCY VIRUS REPLICATION” (VIIV HEALTHCARE UK (No. 5) LIMITED, priority 2018, published 2022).
# pEC50: −log10 of the molar value.
# Experiments:
# [1] = test system: recombinant NL4-3 virus (Renilla luciferase) in MT-2 cells; test: HIV cell culture assay (antiviral activity, luciferase readout); assay type: cell-based; settings: Renilla, NL43
# Procedure: HIV cell culture assay—MT-2 cells, 293T cells and the proviral DNA clone of NL4-3 virus were obtained from the NIH AIDS Research and Reference Reagent Program. MT-2 cells were propagated in RPMI 1640 media supplemented with 10% heat inactivated fetal bovine serum (FBS), 100 μg/ml penicillin G and up to 100 units/mL streptomycin. The 293T cells were propagated in DMEM media supplemented with 10% heat inactivated FBS, 100 μg/mL penicillin G and 100 μg/mL streptomycin. A recombinant NL4-3 proviral clone, in which a section of the nef gene was replaced with the Renilla luciferase gene, was used to make the reference virus used in these studies. The recombinant virus was prepared through transfection of the recombinant NL4-3 proviral clone into 293T cells using Transit-293 Transfection Reagent from Mirus Bio LLC (Madison, Wis.). Supernatent was harvested after 2-3 days and the amount of virus present was titered in MT-2 cells using luciferase enzyme activity as a marker by measuring luciferase enzyme activity. Luciferase was quantitated using the EnduRen Live Cell Substrate from Promega (Madison, Wis.). Antiviral activities of compounds toward the recombinant virus were quantified by measuring luciferase activity in MT-2 cells infected for 4-5 days with the recombinant virus in the presence of serial dilutions of the compound.
# The 50% effective concentration (EC50) was calculated by using the exponential form of the median effect equation where (Fa)=1/[1+(ED50/drug conc.)m] (Johnson V A, Byington R T. Infectivity Assay. In Techniques in HIV Research. ed. Aldovini A, Walker B D. 71-76. New York: Stockton Press. 1990).
# [2] = Compound cytotoxicity, XTT-based colorimetric assay; assay type: cell-based; settings: human; uninfected MT2 cells, day 4, XTT assay
# Procedure: Compound cytotoxicity and the corresponding CC50 values were determined using the same protocol as described in the antiviral assay except that uninfected cells were used. Cytotoxicity was assessed on day 4 in uninfected MT2 cells by using a XTT (2,3-bis[2-Methoxy-4-nitro-5-sulfophenyl]-2H-tetrazolium-5-carboxyanilide inner salt)-based colorimetric assay (Sigma-Aldrich, St Louis, Mo.).
Compound,pEC50 [1],CC50 at 4 day [2]
"Cn1nc(NS(C)(=O)=O)c2c(Cl)ccc(-n3c([C@H](Cc4cc(F)cc(F)c4)NC(=O)Cn4nc(C(F)F)c5c4C(F)(F)[C@@H]4C[C@H]54)nc4nc(-c5cc(F)ccc5F)ccc4c3=O)c21 (atropisomer, axis not shown; (P)) [Example 9, N—((S)-1-((3P)-3-(4-chloro-1-methyl-3-(methylsulfonamido)-1H-indazol-7-yl)-7-(2,5-difluorophenyl)-4-oxo-3,4-dihydropyrido[2,3-d]pyrimidin-2-yl)-2-(3,5-difluorophenyl)ethyl)-2-((3bS,4aR)-3-(difluoromethyl)-5,5-difluoro-3b,4,4a,5-tetrahydro-1H-cyclopropa[3,4]cyclopenta[1,2-c]pyrazol-1-yl)acetamide]",9.92,> 500 nM
"Cn1nc(NS(C)(=O)=O)c2c(Cl)ccc(-n3c([C@H](Cc4cc(F)cc(F)c4)NC(=O)Cn4ccc(C5CC5)n4)nc4nc(-c5ccccc5F)ccc4c3=O)c21 (atropisomer, axis not shown; (P)) [Example 34, (S)—N-(1-((3P)-3-(4-chloro-1-methyl-3-(methylsulfonamido)-1H-indazol-7-yl)-7-(2-fluorophenyl)-4-oxo-3,4-dihydropyrido[2,3-d]pyrimidin-2-yl)-2-(3,5-difluorophenyl)ethyl)-2-(3-cyclopropyl-1H-pyrazol-1-yl)acetamide]",10.05,> 500 nM
"Cn1nc(NS(C)(=O)=O)c2c(Cl)ccc(-n3c([C@H](Cc4cc(F)cc(F)c4)NC(=O)Cn4nc(C(F)F)c5c4C(F)(F)[C@@H]4C[C@H]54)nc4nc(-c5cc(Cl)c(F)cc5F)ccc4c3=O)c21 (atropisomer, axis not shown; (P)) [Example 6, N—((S)-1-((3P)-3-(4-chloro-1-methyl-3-(methylsulfonamido)-1H-indazol-7-yl)-7-(5-chloro-2,4-difluorophenyl)-4-oxo-3,4-dihydropyrido[2,3-d]pyrimidin-2-yl)-2-(3,5-difluorophenyl)ethyl)-2-((3bS,4aR)-3-(difluoromethyl)-5,5-difluoro-3b,4,4a,5-tetrahydro-1H-cyclopropa[3,4]cyclopenta[1,2-c]pyrazol-1-yl)acetamide]",9.72,> 100 nM
"Cn1nc(NS(C)(=O)=O)c2c(Cl)ccc(-n3c([C@H](Cc4cc(F)cc(F)c4)NC(=O)Cn4nc(C(F)F)c5c4C(F)(F)[C@@H]4C[C@H]54)nc4nc(-c5cccc(S(C)(=O)=O)c5)ccc4c3=O)c21 (atropisomer, axis not shown; (P)) [Example 23, N—((S)-1-((3P)-3-(4-chloro-1-methyl-3-(methylsulfonamido)-1H-indazol-7-yl)-7-(3-(methylsulfonyl)phenyl)-4-oxo-3,4-dihydropyrido[2,3-d]pyrimidin-2-yl)-2-(3,5-difluorophenyl)ethyl)-2-((3bS,4aR)-3-(difluoromethyl)-5,5-difluoro-3b,4,4a,5-tetrahydro-1H-cyclopropa[3,4]cyclopenta[1,2-c]pyrazol-1-yl)acetamide]",10.19,> 100 nM
"O=C(Cn1nc(C(F)(F)F)c2c1C(F)(F)[C@@H]1C[C@H]21)N[C@@H](Cc1cc(F)cc(F)c1)c1nc2nc(-c3ccccc3F)ccc2c(=O)n1-c1ccc(Cl)c2c(NS(=O)(=O)C3CC3)nn(CC(F)F)c12 (atropisomer, axis not shown; (P)) [Example 7, N—((S)-1-((3P)-3-(4-chloro-3-(cyclopropanesulfonamido)-1-(2,2-difluoroethyl)-1H-indazol-7-yl)-7-(2-fluorophenyl)-4-oxo-3,4-dihydropyrido[2,3-d]pyrimidin-2-yl)-2-(3,5-difluorophenyl)ethyl)-2-((3bS,4aR)-5,5-difluoro-3-(trifluoromethyl)-3b,4,4a,5-tetrahydro-1H-cyclopropa[3,4]cyclopenta[1,2-c]pyrazol-1-yl)acetamide]",10.25,> 100 nM
"Cn1nc(NS(C)(=O)=O)c2c(Cl)ccc(-n3c([C@H](Cc4cc(F)cc(F)c4)NC(=O)Cn4nc(C(F)F)c5c4C(F)(F)[C@@H]4C[C@H]54)nc4nc(-c5ccc(F)c(Cl)c5F)ccc4c3=O)c21 (atropisomer, axis not shown; (P)) [Example 22, N—((S)-1-((3P)-3-(4-chloro-1-methyl-3-(methylsulfonamido)-1H-indazol-7-yl)-7-(3-chloro-2,4-difluorophenyl)-4-oxo-3,4-dihydropyrido[2,3-d]pyrimidin-2-yl)-2-(3,5-difluorophenyl)ethyl)-2-((3bS,4aR)-3-(difluoromethyl)-5,5-difluoro-3b,4,4a,5-tetrahydro-1H-cyclopropa[3,4]cyclopenta[1,2-c]pyrazol-1-yl)acetamide]",10.00,> 100 nM
"Cn1nc(NS(C)(=O)=O)c2c(Cl)ccc(-n3c([C@H](Cc4cc(F)cc(F)c4)NC(=O)Cn4nc(C(F)F)c5c4C(F)(F)[C@@H]4C[C@H]54)nc4nc(-c5cc(F)cc(F)c5)ccc4c3=O)c21 (atropisomer, axis not shown; (P)) [Example 21, N—((S)-1-((3P)-3-(4-chloro-1-methyl-3-(methylsulfonamido)-1H-indazol-7-yl)-7-(3,5-difluorophenyl)-4-oxo-3,4-dihydropyrido[2,3-d]pyrimidin-2-yl)-2-(3,5-difluorophenyl)ethyl)-2-((3bS,4aR)-3-(difluoromethyl)-5,5-difluoro-3b,4,4a,5-tetrahydro-1H-cyclopropa[3,4]cyclopenta[1,2-c]pyrazol-1-yl)acetamide]",10.10,> 100 nM
"Cn1nc(NS(C)(=O)=O)c2c(Cl)ccc(-n3c([C@H](Cc4cc(F)cc(F)c4)NC(=O)Cn4nc(C(F)F)c5c4C(F)(F)[C@@H]4C[C@H]54)nc4nc(-c5ccc(F)cc5CO)ccc4c3=O)c21 (atropisomer, axis not shown; (P)) [Example 16, N—((S)-1-((3P)-3-(4-chloro-1-methyl-3-(methylsulfonamido)-1H-indazol-7-yl)-7-(4-fluoro-2-(hydroxymethyl)phenyl)-4-oxo-3,4-dihydropyrido[2,3-d]pyrimidin-2-yl)-2-(3,5-difluorophenyl)ethyl)-2-((3bS,4aR)-3-(difluoromethyl)-5,5-difluoro-3b,4,4a,5-tetrahydro-1H-cyclopropa[3,4]cyclopenta[1,2-c]pyrazol-1-yl)acetamide]",10.25,> 500 nM
"Cn1nc(NS(C)(=O)=O)c2c(Cl)ccc(-n3c([C@H](Cc4cc(F)cc(F)c4)NC(=O)Cn4nc(C(F)F)c5c4C(F)(F)[C@@H]4C[C@H]54)nc4cc(-c5ccccc5F)cnc4c3=O)c21 (atropisomer, axis not shown; (P)) [Example 38, N—((S)-1-((3P)-3-(4-chloro-1-methyl-3-(methylsulfonamido)-1H-indazol-7-yl)-7-(2-fluorophenyl)-4-oxo-3,4-dihydropyrido[3,2-d]pyrimidin-2-yl)-2-(3,5-difluorophenyl)ethyl)-2-((3bS,4aR)-3-(difluoromethyl)-5,5-difluoro-3b,4,4a,5-tetrahydro-1H-cyclopropa[3,4]cyclopenta[1,2-c]pyrazol-1-yl)acetamide]",8.72,> 500 nM
"Cn1nc(NS(C)(=O)=O)c2c(Cl)ccc(-n3c([C@H](Cc4cc(F)cc(F)c4)NC(=O)Cn4nc(C(F)F)c5c4C(F)(F)[C@@H]4C[C@H]54)nc4nc(-c5ccc(F)cc5)ccc4c3=O)c21 (atropisomer, axis not shown; (P)) [Example 18, N—((S)-1-((3P)-3-(4-chloro-1-methyl-3-(methylsulfonamido)-1H-indazol-7-yl)-7-(4-fluorophenyl)-4-oxo-3,4-dihydropyrido[2,3-d]pyrimidin-2-yl)-2-(3,5-difluorophenyl)ethyl)-2-((3bS,4aR)-3-(difluoromethyl)-5,5-difluoro-3b,4,4a,5-tetrahydro-1H-cyclopropa[3,4]cyclopenta[1,2-c]pyrazol-1-yl)acetamide]",10.44,> 100 nM
"Cn1nc(NS(C)(=O)=O)c2c(Cl)ccc(-n3c([C@H](Cc4cc(F)cc(F)c4)NC(=O)Cn4nc(C(F)(F)F)c5c4C(F)(F)[C@@H]4C[C@H]54)nc4nc(-c5ccccc5F)ccc4c3=O)c21 (atropisomer, axis not shown; (P)) [Example 17, N—((S)-1-((3P)-3-(4-chloro-1-methyl-3-(methylsulfonamido)-1H-indazol-7-yl)-7-(2-fluorophenyl)-4-oxo-3,4-dihydropyrido[2,3-d]pyrimidin-2-yl)-2-(3,5-difluorophenyl)ethyl)-2-((3bS,4aR)-5,5-difluoro-3-(trifluoromethyl)-3b,4,4a,5-tetrahydro-1H-cyclopropa[3,4]cyclopenta[1,2-c]pyrazol-1-yl)acetamide]",10.19,> 100 nM
